# In ChEMBL document CHEMBL1201862, “PubChem BioAssay data set” (2004):
# The source made the active and inactive calls.
# What was measured:
# Hexokinase HKDC1 = target: T1, Hexokinase HKDC1 (Homo sapiens, UniProt Q2TB90); experiment: SAR analysis of small molecule inhibitors of hexokinase domain containing I (HKDC1). [Related pubchem assays (depositor defined):AID493160, AID493190]; assay type: functional
# T1 sequence (Q2TB90 whole entry): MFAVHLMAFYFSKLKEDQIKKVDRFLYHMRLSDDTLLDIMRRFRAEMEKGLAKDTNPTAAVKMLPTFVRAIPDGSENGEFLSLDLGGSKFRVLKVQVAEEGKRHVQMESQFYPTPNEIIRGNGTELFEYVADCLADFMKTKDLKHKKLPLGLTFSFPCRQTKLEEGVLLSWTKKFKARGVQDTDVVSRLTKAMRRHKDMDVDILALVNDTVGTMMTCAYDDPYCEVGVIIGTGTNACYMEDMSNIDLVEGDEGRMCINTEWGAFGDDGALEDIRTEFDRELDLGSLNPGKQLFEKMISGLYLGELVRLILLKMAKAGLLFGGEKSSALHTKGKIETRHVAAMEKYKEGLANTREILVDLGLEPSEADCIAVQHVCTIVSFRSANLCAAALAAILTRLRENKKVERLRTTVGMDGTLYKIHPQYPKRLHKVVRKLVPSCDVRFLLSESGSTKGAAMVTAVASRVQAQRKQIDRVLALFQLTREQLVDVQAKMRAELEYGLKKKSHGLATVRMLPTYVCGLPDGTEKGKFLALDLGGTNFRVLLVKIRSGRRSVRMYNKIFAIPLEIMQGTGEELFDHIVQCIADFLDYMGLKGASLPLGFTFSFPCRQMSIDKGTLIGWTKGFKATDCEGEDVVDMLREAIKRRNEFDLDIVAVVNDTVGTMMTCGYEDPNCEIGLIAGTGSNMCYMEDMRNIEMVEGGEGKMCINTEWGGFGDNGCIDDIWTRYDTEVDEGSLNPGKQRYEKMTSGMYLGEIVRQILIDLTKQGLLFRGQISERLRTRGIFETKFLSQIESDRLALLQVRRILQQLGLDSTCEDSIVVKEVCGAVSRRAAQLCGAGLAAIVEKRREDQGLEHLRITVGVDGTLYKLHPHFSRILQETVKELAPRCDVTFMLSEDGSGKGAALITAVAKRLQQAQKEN
# Hexokinase-1 = target: T2, Hexokinase-1 (Homo sapiens, UniProt P19367); experiment: SAR analysis of small molecule inhibitors of hexokinase domain containing I (HKDC1) in the hexokinase 1 selectivity assay. [Related pubchem assays (depositor defined):AID493160, AID493190]; assay type: functional
# T2 sequence (P19367 whole entry): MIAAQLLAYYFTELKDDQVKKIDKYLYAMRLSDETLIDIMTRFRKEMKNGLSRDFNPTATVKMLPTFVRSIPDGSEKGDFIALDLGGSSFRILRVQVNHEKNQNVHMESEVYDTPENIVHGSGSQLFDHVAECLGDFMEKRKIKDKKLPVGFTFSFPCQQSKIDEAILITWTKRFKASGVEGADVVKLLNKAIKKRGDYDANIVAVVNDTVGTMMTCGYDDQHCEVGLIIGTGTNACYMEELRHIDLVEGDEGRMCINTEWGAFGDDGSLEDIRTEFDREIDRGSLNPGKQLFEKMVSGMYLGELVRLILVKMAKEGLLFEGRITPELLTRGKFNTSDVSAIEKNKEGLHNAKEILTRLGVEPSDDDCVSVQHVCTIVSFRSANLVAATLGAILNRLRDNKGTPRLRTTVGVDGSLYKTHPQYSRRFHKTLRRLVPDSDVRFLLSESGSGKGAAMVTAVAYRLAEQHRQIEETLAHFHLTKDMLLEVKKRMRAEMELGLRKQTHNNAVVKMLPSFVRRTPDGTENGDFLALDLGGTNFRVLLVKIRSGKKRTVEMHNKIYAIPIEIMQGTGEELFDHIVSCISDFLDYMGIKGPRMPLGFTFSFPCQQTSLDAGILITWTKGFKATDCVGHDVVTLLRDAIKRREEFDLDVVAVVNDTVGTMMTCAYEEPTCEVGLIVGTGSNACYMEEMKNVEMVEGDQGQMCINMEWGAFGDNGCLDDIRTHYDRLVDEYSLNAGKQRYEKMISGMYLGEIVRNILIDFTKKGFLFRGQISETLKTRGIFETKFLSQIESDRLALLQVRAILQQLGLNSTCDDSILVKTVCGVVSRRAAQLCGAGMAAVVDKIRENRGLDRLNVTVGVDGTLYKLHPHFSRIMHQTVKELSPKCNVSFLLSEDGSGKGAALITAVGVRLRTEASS
# [1] = target: Beta-adrenergic receptor kinase 1 (Homo sapiens, UniProt P25098); experiment: aptamer displacement from bead-bound GRK2 – biochemical, cherry pick 1, bead flow cytometry, dose response (AID 504500)
# Beta-adrenergic receptor kinase 1, sequence (P25098 whole entry, the tested form may be a part): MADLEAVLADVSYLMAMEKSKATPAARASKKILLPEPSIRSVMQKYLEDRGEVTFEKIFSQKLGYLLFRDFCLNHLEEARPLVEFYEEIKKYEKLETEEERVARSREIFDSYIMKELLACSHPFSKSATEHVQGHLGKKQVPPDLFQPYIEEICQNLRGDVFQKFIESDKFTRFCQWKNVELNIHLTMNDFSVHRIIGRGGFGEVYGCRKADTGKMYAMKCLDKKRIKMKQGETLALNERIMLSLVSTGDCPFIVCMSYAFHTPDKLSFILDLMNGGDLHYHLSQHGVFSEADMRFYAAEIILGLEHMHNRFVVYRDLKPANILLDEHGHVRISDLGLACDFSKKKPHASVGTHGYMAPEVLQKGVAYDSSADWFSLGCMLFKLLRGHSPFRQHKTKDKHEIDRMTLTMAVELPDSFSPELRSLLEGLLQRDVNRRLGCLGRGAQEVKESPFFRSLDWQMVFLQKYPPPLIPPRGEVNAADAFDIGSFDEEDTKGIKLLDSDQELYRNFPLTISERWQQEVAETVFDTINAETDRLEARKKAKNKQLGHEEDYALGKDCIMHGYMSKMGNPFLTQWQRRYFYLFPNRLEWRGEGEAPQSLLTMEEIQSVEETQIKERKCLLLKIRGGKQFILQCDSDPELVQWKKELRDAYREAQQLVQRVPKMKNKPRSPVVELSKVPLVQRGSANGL
# [2] = target: T3, Carboxy-terminal domain RNA polymerase II polypeptide A small phosphatase 1 (Homo sapiens, UniProt Q9GZU7); experiment: CTDSP1 inhibitors, concentration-response, biochemical, absorbance readout, ultra-high-throughput screen actives (AID 540297); assay type: functional
# T3 sequence (Q9GZU7 whole entry): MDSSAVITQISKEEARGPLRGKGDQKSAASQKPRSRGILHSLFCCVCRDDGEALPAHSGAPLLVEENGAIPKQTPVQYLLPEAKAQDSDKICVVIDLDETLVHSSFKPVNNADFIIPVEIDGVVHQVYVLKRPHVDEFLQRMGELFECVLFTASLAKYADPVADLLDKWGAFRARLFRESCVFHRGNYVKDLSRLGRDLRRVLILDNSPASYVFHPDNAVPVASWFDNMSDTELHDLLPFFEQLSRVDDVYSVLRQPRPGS
# Caspase-6 = target: T4, Caspase-6 (Homo sapiens, UniProt P55212); experiment: inhibition of CASP6 peptide cleavage – biochemical, VEID-R110 fluorescence, cherry-pick, dose response (AID 720632)
# T4 sequence (P55212 whole entry): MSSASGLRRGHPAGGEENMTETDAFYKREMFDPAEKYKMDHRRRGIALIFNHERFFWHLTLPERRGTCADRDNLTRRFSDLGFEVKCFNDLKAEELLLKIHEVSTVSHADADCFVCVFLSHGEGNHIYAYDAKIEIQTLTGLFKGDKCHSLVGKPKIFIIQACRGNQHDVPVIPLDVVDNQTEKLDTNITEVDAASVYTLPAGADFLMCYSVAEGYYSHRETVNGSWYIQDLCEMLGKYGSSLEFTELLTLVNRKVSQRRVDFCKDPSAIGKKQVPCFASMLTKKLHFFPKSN
# Caspase-7 = Caspase-7 (Homo sapiens, UniProt P55210); experiment: caspase-7 enzyme inhibition, selectivity check – biochemical, DEVD-R110 fluorescence, cherry-pick, selectivity assay for caspase-6 inhibitor project, dose response (AID 743295); assay type: functional
# Caspase-7, sequence (P55210 24-198 limits assumed): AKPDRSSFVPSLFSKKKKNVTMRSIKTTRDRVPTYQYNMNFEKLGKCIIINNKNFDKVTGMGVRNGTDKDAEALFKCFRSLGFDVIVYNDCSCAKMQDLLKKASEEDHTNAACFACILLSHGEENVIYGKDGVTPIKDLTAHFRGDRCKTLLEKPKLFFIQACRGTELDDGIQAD
# Caspase-7, sequence (P55210 207-303 limits assumed): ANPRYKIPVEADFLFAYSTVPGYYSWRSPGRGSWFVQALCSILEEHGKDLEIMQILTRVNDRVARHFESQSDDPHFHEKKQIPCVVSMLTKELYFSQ
# Caspase-8 = Caspase-8 (Homo sapiens, UniProt Q14790); experiment: inhibitors of purified CASP8 protease – biochemical, Z-IETD-R110 fluorescence, cherry-picked samples, selectivity assay for caspase-6 inhibitor project, dose response (AID 743294)
# Caspase-8, sequence (Q14790 217-374 limits assumed): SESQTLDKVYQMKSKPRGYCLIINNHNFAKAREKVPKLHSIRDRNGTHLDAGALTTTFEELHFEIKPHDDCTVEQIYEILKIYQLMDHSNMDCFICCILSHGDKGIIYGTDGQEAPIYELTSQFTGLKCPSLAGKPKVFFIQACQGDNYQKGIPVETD
# Caspase-8, sequence (Q14790 385-479 limits assumed): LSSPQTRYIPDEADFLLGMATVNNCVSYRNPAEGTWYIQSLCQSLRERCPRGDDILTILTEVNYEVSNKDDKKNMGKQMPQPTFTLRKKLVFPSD
IC50 (Hexokinase HKDC1),IC50 (Hexokinase-1),EC50 [1],IC50 [2],AC50 (Caspase-6),AC50 (Caspase-7),AC50 (Caspase-8),SMILES
> 80 µM (inactive),> 80 µM (inactive),–,–,–,–,–,O=c1c2ccccc2nc(/C=C/c2ccc3c(c2)OCO3)n1Cc1ccccc1
–,–,0.72 µM (active),6.44 µM (active),3.75 µM (active),> 70 µM (inactive),58.8 µM (active),CCCN(C(=O)c1cccc(-n2cccc2)c1)c1c(N)n(Cc2ccccc2)c(=O)[nH]c1=O
